# Columns and labels:
# Assay in all cases: relative viability (nuclei count vs DMSO), 5 days (fraction); higher = more cells survive
# JZL-184 + Bortezomib = compound: C1CN(CCC1C(C2=CC3=C(C=C2)OCO3)(C4=CC5=C(C=C4)OCO5)O)C(=O)OC6=CC=C(C=C6)[N+](=O)[O-] [JZL-184] + CC(C)C[C@H](NC(=O)[C@H](Cc1ccccc1)NC(=O)c1cnccn1)B(O)O [Bortezomib] (partner 0.002 µM)
# Outline: (§1)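 Lung cancer cell lines in 1536-well plates got either a single drug or a fixed anchor-drug dose together with five library-drug doses (not always all listed) in √10 steps, by pin tool, on the day after seeding. Nuclei were counted after 5 days, and relative viability is the treated-to-vehicle ratio of nuclei counts. Values are medians of duplicate plates.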
# JZL-184 + Linsitinib = compound: C1CN(CCC1C(C2=CC3=C(C=C2)OCO3)(C4=CC5=C(C=C4)OCO5)O)C(=O)OC6=CC=C(C=C6)[N+](=O)[O-] [JZL-184] + C[C@]1(O)C[C@@H](c2nc(-c3ccc4ccc(-c5ccccc5)nc4c3)c3c(N)nccn32)C1 [Linsitinib] (partner 1 µM)
# Outline: as §1
# JZL-184 + Tozasertib = compound: C1CN(CCC1C(C2=CC3=C(C=C2)OCO3)(C4=CC5=C(C=C4)OCO5)O)C(=O)OC6=CC=C(C=C6)[N+](=O)[O-] [JZL-184] + Cc1cc(Nc2cc(N3CCN(C)CC3)nc(Sc3ccc(NC(=O)C4CC4)cc3)n2)n[nH]1 [Tozasertib] (partner 0.1 µM)
# Outline: as §1
# JZL-184 + Phenformin = compound: C1CN(CCC1C(C2=CC3=C(C=C2)OCO3)(C4=CC5=C(C=C4)OCO5)O)C(=O)OC6=CC=C(C=C6)[N+](=O)[O-] [JZL-184] + N=C(N)NC(=N)NCCc1ccccc1 [Phenformin] (partner 250 µM)
# Outline: as §1
# JZL-184 + Pemetrexed = compound: C1CN(CCC1C(C2=CC3=C(C=C2)OCO3)(C4=CC5=C(C=C4)OCO5)O)C(=O)OC6=CC=C(C=C6)[N+](=O)[O-] [JZL-184] + Nc1nc2[nH]cc(CCc3ccc(C(=O)N[C@@H](CCC(=O)O)C(=O)O)cc3)c2c(=O)[nH]1 [Pemetrexed] (partner 0.2 µM)
# Outline: as §1
Cell Line,relative viability (JZL-184 + Bortezomib; first compound 0.04 µM),relative viability (JZL-184 + Bortezomib; first compound 0.4 µM),relative viability (JZL-184 + Bortezomib; first compound 1.265 µM),relative viability (JZL-184 + Bortezomib; first compound 4 µM),relative viability (JZL-184 + Linsitinib; first compound 0.04 µM),relative viability (JZL-184 + Linsitinib; first compound 0.4 µM),relative viability (JZL-184 + Linsitinib; first compound 1.265 µM),relative viability (JZL-184 + Linsitinib; first compound 4 µM),relative viability (JZL-184 + Tozasertib; first compound 0.04 µM),relative viability (JZL-184 + Tozasertib; first compound 0.4 µM),relative viability (JZL-184 + Tozasertib; first compound 1.265 µM),relative viability (JZL-184 + Tozasertib; first compound 4 µM),relative viability (JZL-184 + Phenformin; first compound 0.04 µM),relative viability (JZL-184 + Phenformin; first compound 0.4 µM),relative viability (JZL-184 + Phenformin; first compound 1.265 µM),relative viability (JZL-184 + Phenformin; first compound 4 µM),relative viability (JZL-184 + Pemetrexed; first compound 0.04 µM),relative viability (JZL-184 + Pemetrexed; first compound 0.4 µM),relative viability (JZL-184 + Pemetrexed; first compound 1.265 µM),relative viability (JZL-184 + Pemetrexed; first compound 4 µM)
EMC-BAC-2,1.2,1.02,1.16,1.07,0.855,0.793,0.791,0.784,0.296,0.282,0.285,0.287,0.609,0.476,0.568,0.456,0.452,0.423,0.454,0.473
NCI-H661,0.763,0.803,0.796,0.889,0.542,0.477,0.712,0.521,0.364,0.354,0.337,0.325,0.259,0.287,0.292,0.332,0.983,0.858,0.931,0.898
LU99A,1.29,1.09,1.32,1.22,0.582,0.511,0.529,0.442,0.283,0.299,0.317,0.285,0.86,0.763,0.999,0.968,0.162,0.12,0.159,0.124
LK-2,–,–,–,–,0.733,0.559,0.662,0.583,0.166,0.163,0.171,0.181,0.374,0.676,0.678,0.416,0.235,0.2,0.183,0.277
NCI-H3122,1.01,0.93,0.982,1.03,1.03,0.949,1.03,0.971,0.432,0.393,0.453,0.396,0.38,0.387,0.376,0.39,0.187,0.18,0.2,0.204
NCI-H2347,1.12,0.717,1.05,0.906,0.98,0.953,0.926,0.946,0.447,0.442,0.551,0.662,0.357,0.393,0.369,0.536,0.388,0.368,0.402,0.45
NCI-H1563,0.79,0.797,0.86,0.933,1.24,1.31,1.21,1.09,–,–,–,–,0.694,0.636,0.681,0.64,0.851,0.776,0.821,0.739
HCC-827,1.11,0.911,1.07,1.02,0.988,0.976,0.949,0.89,0.421,0.383,0.449,0.411,0.424,0.376,0.424,0.379,0.222,0.199,0.178,0.261
NCI-H1666,0.98,0.714,0.868,0.904,0.836,0.921,0.917,0.881,0.603,0.626,0.581,0.598,0.614,0.585,0.538,0.534,0.802,0.842,0.875,0.865
NCI-H358,–,–,–,–,0.889,0.738,0.848,0.708,0.104,0.118,0.0969,0.101,0.422,0.32,0.304,0.328,0.195,0.162,0.181,0.163
201T,1.14,1.04,1.07,1.07,1.03,1.01,1.05,1.02,1.02,0.981,0.988,0.862,0.451,0.44,0.465,0.45,0.355,0.351,0.348,0.293
PC-3 [JPC-3],0.988,0.895,0.835,0.801,0.955,0.936,0.973,0.905,1.01,0.827,0.895,0.865,0.45,0.464,0.495,0.487,0.994,1.13,1.27,1.05
NCI-H2405,1.05,0.943,1.06,0.769,0.806,0.895,1.09,0.986,0.759,0.729,0.815,0.732,0.336,0.398,0.419,0.392,1.09,0.999,1.14,1.05
LXF-289,1.01,0.953,1.04,0.933,1.05,0.94,0.971,0.924,0.221,0.206,0.198,0.22,0.574,0.496,0.546,0.525,0.882,0.779,0.862,0.875
EKVX,1.12,0.905,1.04,0.967,0.987,1.01,0.948,0.937,0.39,0.408,0.423,0.351,0.236,0.243,0.244,0.238,0.364,0.326,0.352,0.403

# Source: the supplement of paper PMC10307832
